PubChem BioAssay AID1963828 (Molecular Pharmacology Branch, DTP, NCI, 2024)

System: 991263-137-R1-J2-PDC complex spheroid viability
Test: Anticancer human tumor 991263-137-R1-J2-PDC patient-derived colon adenocarcinoma cell line growth inhibition [POLQ]
Conditions: for IC50: curve of first compound; for viability, T/C: stronger effect = lower value
Procedure, shortened: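 Complex spheroid viability model combining PDC tumour cells with endothelial (HUVEC) and MSC stromal cells. Novobiocin, ART-558 or RP6685 were tested singly and in combination with standard and investigational anticancer drugs. Each was titrated in half-log steps from near clinical Cmax, or from 10 microM where Cmax was unknown.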

[1] = second compound 0.0316 µM, first compound 0.0316 µM
[2] = second compound 0.0316 µM, first compound 0.1 µM
[3] = second compound 0.1 µM, first compound 0.0316 µM
[4] = second compound 0.1 µM, first compound 0.1 µM
[5] = second compound 0.316 µM, first compound 0.0316 µM
[6] = second compound 0.316 µM, first compound 0.1 µM
[7] = second compound 1 µM, first compound 0.0316 µM
[8] = second compound 1 µM, first compound 0.1 µM
[9] = second compound 3.16 µM, first compound 0.0316 µM
[10] = second compound 3.16 µM, first compound 0.1 µM
[11] = second compound 10 µM, first compound 0.0316 µM
[12] = second compound 10 µM, first compound 0.1 µM
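Also: spheroids exposed to compounds for 7 days before readout.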
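For viability, T/C in this document: 100% = DMSO vehicle control viability.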

CC(C)n1c(=O)n(C)c2cnc3cc(F)c(-c4ccc(OCCCN5CCCCC5)nc4)cc3c21 + COC1C(OC(N)=O)C(O)C(Oc2ccc3c(O)c(NC(=O)c4ccc(O)c(CC=C(C)C)c4)c(=O)oc3c2C)OC1(C)C
IC50 (second compound 0.0316 µM): > 10 µM
IC50 (second compound 0.1 µM): > 10 µM
IC50 (second compound 0.316 µM): > 10 µM
IC50 (second compound 1 µM): > 10 µM
IC50 (second compound 3.16 µM): > 10 µM
IC50 (second compound 10 µM): > 10 µM
viability, T/C [1]: 107%
viability, T/C [2]: 109%
viability, T/C (second compound 0.0316 µM, first compound 0.316 µM): 118%
viability, T/C (second compound 0.0316 µM, first compound 1 µM): 101%
viability, T/C (second compound 0.0316 µM, first compound 3.16 µM): 103%
viability, T/C (second compound 0.0316 µM, first compound 10 µM): 82.7%
viability, T/C [3]: 91.5%
viability, T/C [4]: 106%
viability, T/C (second compound 0.1 µM, first compound 0.316 µM): 116%
viability, T/C (second compound 0.1 µM, first compound 1 µM): 99%
viability, T/C (second compound 0.1 µM, first compound 3.16 µM): 102%
viability, T/C (second compound 0.1 µM, first compound 10 µM): 82.1%
viability, T/C [5]: 86.3%
viability, T/C [6]: 114%
viability, T/C (second compound 0.316 µM, first compound 0.316 µM): 117%
viability, T/C (second compound 0.316 µM, first compound 1 µM): 96.9%
viability, T/C (second compound 0.316 µM, first compound 3.16 µM): 106%
viability, T/C (second compound 0.316 µM, first compound 10 µM): 96.2%
viability, T/C [7]: 109%
viability, T/C [8]: 106%
viability, T/C (second compound 1 µM, first compound 0.316 µM): 112%
viability, T/C (second compound 1 µM, first compound 1 µM): 83.5%
viability, T/C (second compound 1 µM, first compound 3.16 µM): 109%
viability, T/C (second compound 1 µM, first compound 10 µM): 90%
viability, T/C [9]: 111%
viability, T/C [10]: 116%
viability, T/C (second compound 3.16 µM, first compound 0.316 µM): 110%
viability, T/C (second compound 3.16 µM, first compound 1 µM): 108%
viability, T/C (second compound 3.16 µM, first compound 3.16 µM): 95.3%
viability, T/C (second compound 3.16 µM, first compound 10 µM): 96.1%
viability, T/C [11]: 95.1%
viability, T/C [12]: 119%
viability, T/C (second compound 10 µM, first compound 0.316 µM): 117%
viability, T/C (second compound 10 µM, first compound 1 µM): 114%
viability, T/C (second compound 10 µM, first compound 3.16 µM): 107%
viability, T/C (second compound 10 µM, first compound 10 µM): 96.6%

Cn1ncnc1[C@H]1c2n[nH]c(=O)c3cc(F)cc(c23)N[C@@H]1c1ccc(F)cc1 + COC1C(OC(N)=O)C(O)C(Oc2ccc3c(O)c(NC(=O)c4ccc(O)c(CC=C(C)C)c4)c(=O)oc3c2C)OC1(C)C
IC50 (second compound 0.0316 µM): > 0.1 µM
IC50 (second compound 0.1 µM): > 0.1 µM
IC50 (second compound 0.316 µM): > 0.1 µM
IC50 (second compound 1 µM): > 0.1 µM
IC50 (second compound 3.16 µM): > 0.1 µM
IC50 (second compound 10 µM): > 0.1 µM
viability, T/C (second compound 0.0316 µM, first compound 0.000316 µM): 122%
viability, T/C (second compound 0.0316 µM, first compound 0.001 µM): 107%
viability, T/C (second compound 0.0316 µM, first compound 0.00316 µM): 104%
viability, T/C (second compound 0.0316 µM, first compound 0.01 µM): 85.5%
viability, T/C [1]: 79.3%
viability, T/C [2]: 107%
viability, T/C (second compound 0.1 µM, first compound 0.000316 µM): 99.8%
viability, T/C (second compound 0.1 µM, first compound 0.001 µM): 117%
viability, T/C (second compound 0.1 µM, first compound 0.00316 µM): 97.7%
viability, T/C (second compound 0.1 µM, first compound 0.01 µM): 83.8%
viability, T/C [3]: 105%
viability, T/C [4]: 102%
viability, T/C (second compound 0.316 µM, first compound 0.000316 µM): 95%
viability, T/C (second compound 0.316 µM, first compound 0.001 µM): 122%
viability, T/C (second compound 0.316 µM, first compound 0.00316 µM): 75.4%
viability, T/C (second compound 0.316 µM, first compound 0.01 µM): 108%
viability, T/C [5]: 109%
viability, T/C [6]: 110%
viability, T/C (second compound 1 µM, first compound 0.000316 µM): 98.1%
viability, T/C (second compound 1 µM, first compound 0.001 µM): 117%
viability, T/C (second compound 1 µM, first compound 0.00316 µM): 94.2%
viability, T/C (second compound 1 µM, first compound 0.01 µM): 106%
viability, T/C [7]: 71.5%
viability, T/C [8]: 109%
viability, T/C (second compound 3.16 µM, first compound 0.000316 µM): 95.9%
viability, T/C (second compound 3.16 µM, first compound 0.001 µM): 109%
viability, T/C (second compound 3.16 µM, first compound 0.00316 µM): 92.1%
viability, T/C (second compound 3.16 µM, first compound 0.01 µM): 102%
viability, T/C [9]: 109%
viability, T/C [10]: 110%
viability, T/C (second compound 10 µM, first compound 0.000316 µM): 95.7%
viability, T/C (second compound 10 µM, first compound 0.001 µM): 110%
viability, T/C (second compound 10 µM, first compound 0.00316 µM): 121%
viability, T/C (second compound 10 µM, first compound 0.01 µM): 98%
viability, T/C [11]: 113%
viability, T/C [12]: 95.8%
